Assay results: patent US20210260018A1, “COMPOSITION FOR TREATING FIBROTIC DISEASES, […] THI[…] AS ACTIVE INGREDIENT” (Cellion Biomed Inc., priority 2018, published 2021)

How the values were obtained:
[1] = system: bleomycin-induced pulmonary fibrosis mouse models; experiment: Bleomycin-induced pulmonary inflammation and fibrosis mouse model; format: in vivo; settings: lung tissue, bleomycin mice
Protocol: To confirm the effect of the compound of Formula A9 (CBM-N9) on pulmonary inflammation and fibrosis caused by bleomycin, the following experiments were performed on C57BL/6 wild-type mice. First, the mice were divided into a normal control, a disease-induced group, and a drug-administered group, and ten mice were included in each of the three groups. A drug treatment method for the mice in each group is as follows:
(1) Normal control: The same amount of distilled water as used when the bleomycin was applied in the disease-induced group was instilled intratracheally. In addition, a CBM-N9 solvent was intraperitoneally injected at the same amount used when CBM-N9 was administered to the disease-induced group to be described below five times a week.
(2) Disease-induced group: 1.5 units of bleomycin was instilled intratracheally. In addition, a CBM-N9 solvent was intraperitoneally injected at the same amount used in CBM-N9 administration five times a week.
(3) Drug-administered group: 1.5 units of bleomycin was intratracheally instilled. In addition, CBM-N9 (50 mg/kg) was injected intraperitoneally five times a week.
The mice treated with the drug for 4 weeks in the same manner as described above were instantly killed by excessively administering an anesthetic, and then the lungs were extracted.
To histologically confirm the therapeutic effect of the compound of Formula A1 (CBM-N1) or the compound of Formula A9 (CBM-N9) in each mouse model, a paraffin tissue sample was prepared. Liver and lung tissues were fixed with a paraformaldehyde solution, and sliced to a thickness of 1 to 2 mm. The sectioned tissues were embedded in paraffin, sliced to a thickness of 4 μm to remove paraffin with xylene, and the xylene was removed with ethanol, followed by washing with tap water. […]
Cells were lysed with a protein extraction buffer solution, a protein concentration in a supernatant was determined by Bradford analysis, and […] of the protein was loaded on an SDS-PAGE gel and then transferred to a nitrocellulose membrane. […]

fibroblasts = experiment: MTT cell proliferation in fibroblasts exposed to TGFβ or PDGF; format: cell-based; settings: fibroblasts, TGFβ (5 ng/ml) or PDGF (20 ng/ml), 24 hours
Protocol: (§1) Fibroblasts (CRL-2795; American Type Culture Collection, VA) were cultured in a Dulbecco's Modified Eagle Medium (Hyclone, Logan, Utah), human uterine microvascular endothelial cells (PromoCell GmbH, Heidelberg, Germany) were cultured in an MV2 medium (PromoCell GmbH), and human hepatic stellate cells (Innoprot, Bizkia, Spain) were cultured in a P60126 medium (Innoprot).
(§2) All cells were maintained under a 5% humidified carbon dioxide condition at 37° C. The cultured cells were exposed to each of PDGF, TGFβ, and the compounds of Formulas A1 to A9 (CBM-N1 N9) for 24 hours, followed by performing experiments.
Cells were seeded in 96-well plates at 2×10^4 cells/well, and then exposed to TGFB, which promotes cell proliferation, for 24 hours. In addition, 0.1 mg of MTT was added to each well, followed by exposure for 4 hours at 37° C. Afterward, the culture medium was removed, the cells were lysed with dimethyl sulfoxide, and then absorbance was measured at 590 nm using the following devices.

KCa2.3 channel [2] = experiment: KCa2.3 current in hepatic stellate cells (whole-cell patch-clamp); format: cell-based, human; settings: membrane potential of 1-50 mV, exposure for 24 hours
Protocol: as §1, §2
A whole cell current through a cell membrane in the isolated and cultured single cells was measured using a patch-clamp technique. […]
A standard external solution contained 150 mM NaCl, 6 mM KCl, 1.5 mM CaCl2), 1 mM MgCl2, 10 mM HEPES and 10 mM glucose at pH 7.4 (titrated NaOH), and a micro glass electrode (pipette) solution contained 40 mM KCl, 100 mM K-aspartate, 2 mM MgCl2, 0.1 mM EGTA, 4 mM Na2ATP and 10 mM HEPES at pH 7.2 (titrated with KOH). A free Ca^2+ concentration in the pipette solution was adjusted to 1 μM by adding an appropriate amount of Ca^2+ in the presence of 5 mM EGTA (calculated with CaBuf; Droogmans, Leuven, Belgium), […]

KCa2.3 channel [3] = experiment: KCa2.3 channel protein expression in hepatic stellate cells (western blotting); format: cell-based, human; settings: exposure for 24 hours
Protocol: as §1, §2
Cells were lysed with a protein extraction buffer solution, a protein concentration in a supernatant was determined by Bradford analysis, and […] of the protein was loaded on an SDS-PAGE gel and then transferred to a nitrocellulose membrane. The nitrocellulose membrane was blocked with 5% BSA-containing TEST (10 mM Tris-HCl, 150 mM NaCl, and 0.1% (v/v) Tween-20, pH 7.6) at room temperature for 1 hour. Blots were incubated overnight with primary antibodies, and then incubated with horseradish peroxidase-conjugated secondary antibodies for 1 hour. Bands were visualized by chemiluminescence. Data collection and processing were performed using an image analyzer (LAS-3000) and IMAGE GAUSE software (Fuji film, Japan).

SMILES: NC(=O)C[S+]([O-])C(c1ccc(F)cc1)c1ccc(F)cc1 (stereo not drawn) [CBM-N9, 2-[bis(4-fluorophenyl)methanesulfinyl]acetamide]
- degrees of inflammation and fibrosis (H&E, CD45 immunohistochemistry, Masson's trichrome) ([1]; 50 mg/kg intraperitoneally five times a week, 4 weeks, versus disease-induced group): decreased
- protein expression levels of inflammation markers TIMP-2 and CCR2 ([1]; FIG. 13A): greatly decreased
- expression of fibrosis marker proteins (printed: protein expression levels of TIMP-2 and, CCR2) ([1]; FIG. 13B): greatly decreased
- TGFβ or PDGF-induced cell proliferation (fibroblasts): significantly reduced
- KCa2.3 current densities versus cells not exposed (KCa2.3 channel [2]): significantly decreased
- expression of the KCa2.3 channel protein (KCa2.3 channel [3]): significantly reduced
